We go through 27 compounds from ChEMBL document CHEMBL2086385, “Synthesis and antimicrobial evaluation of L-phenylalanine-derived C5-substituted rhodanine and chalcone derivatives containing thiobarbituric acid or 2-thioxo-4-thiazolidinone” (2012).

Converted amounts (≈) assume the structure as drawn.

As usually defined, the MIC is the least concentration at which growth counts as inhibited. Read a high MIC as a less susceptible organism.

Common to all, as to assay type: functional
The subject of one assay is Escherichia coli. The experiment in a line: Antibacterial activity against Escherichia coli CCARM 1356 after 24 hrs by broth microdilution method. As to conditions: CCARM 1356, 24 h. On the technique in general: Broth dilution looks for growth in wells or tubes with falling amounts of substance.
Assay [1] relates to Staphylococcus aureus. The assay can be described thus: Antibacterial activity against quinolone-resistant Staphylococcus aureus CCARM 3519 clinical isolate after 24 hrs by broth microdilution method. As to conditions: CCARM 3519, 24 h.
Assay [2] concerns Staphylococcus aureus. The experiment in a line: Antibacterial activity against methicillin-resistant Staphylococcus aureus CCARM 3167 clinical isolate after 24 hrs by broth microdilution method. To be noted: CCARM 3167, 24 h.
Assay [3] concerns Staphylococcus aureus. The assay can be described thus: Antibacterial activity against Staphylococcus aureus RN4220 after 24 hrs by broth microdilution method. To be noted: RN4220, 24 h.
The test system of assay [4] is Staphylococcus aureus. The experiment in a line: Antibacterial activity against quinolone-resistant Staphylococcus aureus CCARM 3505 clinical isolate after 24 hrs by broth microdilution method. As to conditions: CCARM 3505, 24 h.
For assay [5], the system named is Staphylococcus aureus. The experiment in a line: Antibacterial activity against methicillin-resistant Staphylococcus aureus CCARM 3506 clinical isolate after 24 hrs by broth microdilution method. As to conditions: CCARM 3506, 24 h.
The test system of assay [6] is Staphylococcus aureus. The assay can be described thus: Antibacterial activity against Staphylococcus aureus KCTC 209 after 24 hrs by broth microdilution method. As to conditions: KCTC 209, 24 h.
For assay [7], the system named is Staphylococcus aureus. The assay can be described thus: Antibacterial activity against Staphylococcus aureus KCTC 503 after 24 hrs by broth microdilution method. As to conditions: KCTC 503, 24 h.

In the case of `Cc1ccc(C(=O)/C=C/c2ccc(C=O)cc2)c(C)c1`, the minimum inhibitory concentration (MIC) in the assay on Escherichia coli, against Staphylococcus aureus [1], against Staphylococcus aureus [2], against Staphylococcus aureus [3], in the assay on Staphylococcus aureus [4] and against Staphylococcus aureus [5] was more than 64 µg/mL each time. Also, the MIC in the assay on Staphylococcus aureus [6] and with Staphylococcus aureus [7] was more than 64 µg/mL each time.
Take `O=Cc1ccc(/C=C/C(=O)c2ccccc2)cc1`: the minimum inhibitory concentration (MIC) in the assay with Escherichia coli, with Staphylococcus aureus [1], in the assay on Staphylococcus aureus [2], in the assay with Staphylococcus aureus [3], in the assay on Staphylococcus aureus [4] and in the assay with Staphylococcus aureus [5] was more than 64 µg/mL in each case. Further, the MIC against Staphylococcus aureus [6] and against Staphylococcus aureus [7] was more than 64 µg/mL in each case.
As to `O=C1NC(=S)S/C1=C/c1ccc(/C=C/C(=O)c2ccc(Cl)cc2)cc1`, the MIC in the assay with Escherichia coli, against Staphylococcus aureus [1], against Staphylococcus aureus [2], against Staphylococcus aureus [3], in the assay on Staphylococcus aureus [4] and against Staphylococcus aureus [5] was more than 64 µg/mL each time. In addition, the MIC in the assay with Staphylococcus aureus [6] and with Staphylococcus aureus [7] was more than 64 µg/mL in each case.
On to `O=C1NC(=S)S/C1=C/c1ccc(/C=C/C(=O)c2ccc(F)cc2)cc1`, for which the MIC against Escherichia coli, against Staphylococcus aureus [1], in the assay on Staphylococcus aureus [2], against Staphylococcus aureus [3], against Staphylococcus aureus [4] and in the assay with Staphylococcus aureus [5] was more than 64 µg/mL throughout. The MIC in the assay on Staphylococcus aureus [6] and with Staphylococcus aureus [7] was more than 64 µg/mL in each case.
Take `O=Cc1ccc(/C=C/C(=O)c2ccccc2F)cc1`: the MIC against Escherichia coli, against Staphylococcus aureus [1], with Staphylococcus aureus [2], against Staphylococcus aureus [3], in the assay with Staphylococcus aureus [4] and in the assay on Staphylococcus aureus [5] was more than 64 µg/mL each time. Further, the MIC in the assay on Staphylococcus aureus [6] and against Staphylococcus aureus [7] was more than 64 µg/mL in each case.
For the compound `O=Cc1ccc(OCc2ccccc2Cl)cc1`, the MIC against Escherichia coli, in the assay on Staphylococcus aureus [1], in the assay with Staphylococcus aureus [2], with Staphylococcus aureus [3], in the assay with Staphylococcus aureus [4] and in the assay with Staphylococcus aureus [5] was more than 64 µg/mL throughout. For the same compound, the MIC in the assay on Staphylococcus aureus [6] and against Staphylococcus aureus [7] was more than 64 µg/mL in each case.
As to `Cc1ccc(C(=O)/C=C/c2ccc(C=O)cc2)cc1`, the MIC with Escherichia coli, against Staphylococcus aureus [1], with Staphylococcus aureus [2], against Staphylococcus aureus [3], in the assay with Staphylococcus aureus [4] and against Staphylococcus aureus [5] was more than 64 µg/mL in each case. Moreover, the MIC against Staphylococcus aureus [6] and in the assay with Staphylococcus aureus [7] was more than 64 µg/mL each time.
Take `O=Cc1ccc(/C=C/C(=O)c2ccc(F)cc2)cc1`: the MIC in the assay with Escherichia coli, in the assay on Staphylococcus aureus [1], with Staphylococcus aureus [2], in the assay with Staphylococcus aureus [3], in the assay with Staphylococcus aureus [4] and against Staphylococcus aureus [5] was more than 64 µg/mL in each case. The MIC against Staphylococcus aureus [6] and in the assay with Staphylococcus aureus [7] was more than 64 µg/mL in each case.
Take `COc1cccc(C(=O)/C=C/c2ccc(C=O)cc2)c1`: the MIC against Escherichia coli, in the assay with Staphylococcus aureus [1], against Staphylococcus aureus [2], with Staphylococcus aureus [3], against Staphylococcus aureus [4] and in the assay on Staphylococcus aureus [5] was more than 64 µg/mL throughout. The MIC in the assay with Staphylococcus aureus [6] and with Staphylococcus aureus [7] was more than 64 µg/mL throughout.
Consider `O=Cc1ccc(OCc2ccc(Cl)cc2Cl)cc1`, for which the MIC in the assay with Escherichia coli, against Staphylococcus aureus [1], with Staphylococcus aureus [2], against Staphylococcus aureus [3], against Staphylococcus aureus [4] and in the assay with Staphylococcus aureus [5] was more than 64 µg/mL in each case. The MIC with Staphylococcus aureus [6] and against Staphylococcus aureus [7] was more than 64 µg/mL each time.
As to `O=Cc1ccc(OCc2ccccc2)cc1`, the minimum inhibitory concentration (MIC) in the assay with Escherichia coli, against Staphylococcus aureus [1], against Staphylococcus aureus [2], in the assay on Staphylococcus aureus [3], with Staphylococcus aureus [4] and against Staphylococcus aureus [5] was more than 64 µg/mL each time. Besides, the MIC against Staphylococcus aureus [6] and in the assay on Staphylococcus aureus [7] was more than 64 µg/mL in each case.
Turning to `O=C1NC(=S)S/C1=C/c1ccc(/C=C/C(=O)c2ccccc2F)cc1`, the MIC with Escherichia coli, against Staphylococcus aureus [1], with Staphylococcus aureus [2], in the assay on Staphylococcus aureus [3], in the assay with Staphylococcus aureus [4] and against Staphylococcus aureus [5] was more than 64 µg/mL throughout. The MIC in the assay with Staphylococcus aureus [6] and against Staphylococcus aureus [7] was more than 64 µg/mL each time.
In the case of `CCn1cc(C(=O)O)c(=O)c2cc(F)c(N3CCNCC3)cc21` [NORFLOXACIN], the MIC in the assay with Escherichia coli is 16 µg/mL (≈ 50.1 µM); against Staphylococcus aureus [1] it was more than 64 µg/mL; against Staphylococcus aureus [2], 8 µg/mL (≈ 25.1 µM); against Staphylococcus aureus [3], 2 µg/mL (≈ 6.26 µM); in the assay on Staphylococcus aureus [4] it was more than 64 µg/mL; in the assay with Staphylococcus aureus [5], 4 µg/mL (≈ 12.5 µM). For the same compound, the MIC was determined as 4 µg/mL (≈ 12.5 µM) with Staphylococcus aureus [6] and 2 µg/mL (≈ 6.26 µM) against Staphylococcus aureus [7].
Turning to `O=Cc1ccc(/C=C/C(=O)c2cccc(Br)c2)cc1`, the MIC in the assay with Escherichia coli, in the assay on Staphylococcus aureus [1], against Staphylococcus aureus [2], with Staphylococcus aureus [3], against Staphylococcus aureus [4] and against Staphylococcus aureus [5] was more than 64 µg/mL in each case. The MIC against Staphylococcus aureus [6] and with Staphylococcus aureus [7] was more than 64 µg/mL throughout.
Take `O=Cc1ccc(OCc2ccc(F)cc2)cc1`: the minimal inhibitory concentration (MIC) in the assay on Escherichia coli, in the assay on Staphylococcus aureus [1], against Staphylococcus aureus [2], against Staphylococcus aureus [3], in the assay on Staphylococcus aureus [4] and in the assay with Staphylococcus aureus [5] was more than 64 µg/mL in each case. Moreover, the MIC with Staphylococcus aureus [6] and against Staphylococcus aureus [7] was more than 64 µg/mL throughout.
Consider `Cc1onc(-c2ccccc2)c1C(=O)N[C@@H]1C(=O)N2[C@@H]1SC(C)(C)[C@@H]2C(=O)O` [OXACILLIN], for which the MIC in the assay on Escherichia coli was more than 64 µg/mL; against Staphylococcus aureus [1], 1 µg/mL (≈ 2.49 µM); in the assay on Staphylococcus aureus [2], more than 64 µg/mL; in the assay with Staphylococcus aureus [3], 1 µg/mL (≈ 2.49 µM); in the assay with Staphylococcus aureus [4] it was 1 µg/mL (≈ 2.49 µM); in the assay with Staphylococcus aureus [5], more than 64 µg/mL. Moreover, the MIC in the assay on Staphylococcus aureus [6] and with Staphylococcus aureus [7] was 1 µg/mL (≈ 2.49 µM) in each case.
For the compound `O=Cc1ccc(/C=C/C(=O)c2ccc(Cl)cc2Cl)cc1`, the MIC in the assay on Escherichia coli, against Staphylococcus aureus [1], against Staphylococcus aureus [2], in the assay on Staphylococcus aureus [3], in the assay on Staphylococcus aureus [4] and with Staphylococcus aureus [5] was more than 64 µg/mL throughout. Besides, the MIC against Staphylococcus aureus [6] and with Staphylococcus aureus [7] was more than 64 µg/mL in each case.
`O=Cc1ccc(OCc2ccc(Cl)cc2)cc1`: the MIC against Escherichia coli, in the assay with Staphylococcus aureus [1], in the assay with Staphylococcus aureus [2], in the assay with Staphylococcus aureus [3], with Staphylococcus aureus [4] and against Staphylococcus aureus [5] was more than 64 µg/mL each time. Also, the MIC against Staphylococcus aureus [6] and in the assay with Staphylococcus aureus [7] was more than 64 µg/mL throughout.
In the case of `O=C1NC(=S)NC(=O)C1=Cc1ccc(/C=C/C(=O)c2ccccc2Cl)cc1`, the MIC against Escherichia coli, against Staphylococcus aureus [1], against Staphylococcus aureus [2], against Staphylococcus aureus [3], in the assay with Staphylococcus aureus [4] and against Staphylococcus aureus [5] was more than 64 µg/mL throughout. Besides, the MIC in the assay with Staphylococcus aureus [6] and in the assay with Staphylococcus aureus [7] was more than 64 µg/mL in each case.
As to `O=C1NC(=S)NC(=O)C1=Cc1ccc(/C=C/C(=O)c2cccc(Cl)c2)cc1`, the MIC in the assay on Escherichia coli, against Staphylococcus aureus [1], in the assay with Staphylococcus aureus [2], against Staphylococcus aureus [3], against Staphylococcus aureus [4] and against Staphylococcus aureus [5] was more than 64 µg/mL each time. For the same compound, the MIC in the assay on Staphylococcus aureus [6] and in the assay with Staphylococcus aureus [7] was more than 64 µg/mL throughout.
In the case of `CC(=O)Nc1ccc(C(=O)/C=C/c2ccc(C=O)cc2)cc1`, the MIC against Escherichia coli, in the assay on Staphylococcus aureus [1], against Staphylococcus aureus [2], against Staphylococcus aureus [3], with Staphylococcus aureus [4] and against Staphylococcus aureus [5] was more than 64 µg/mL each time. The MIC against Staphylococcus aureus [6] and with Staphylococcus aureus [7] was more than 64 µg/mL throughout.
Consider `O=Cc1ccc(OCc2cccc(F)c2)cc1`, for which the MIC with Escherichia coli, against Staphylococcus aureus [1], against Staphylococcus aureus [2], with Staphylococcus aureus [3], in the assay with Staphylococcus aureus [4] and with Staphylococcus aureus [5] was more than 64 µg/mL throughout. In addition, the MIC against Staphylococcus aureus [6] and against Staphylococcus aureus [7] was more than 64 µg/mL throughout.
In the case of `O=Cc1ccc(/C=C/C(=O)c2ccc(Cl)cc2)cc1`, the MIC in the assay on Escherichia coli, against Staphylococcus aureus [1], against Staphylococcus aureus [2], in the assay with Staphylococcus aureus [3], in the assay on Staphylococcus aureus [4] and in the assay on Staphylococcus aureus [5] was more than 64 µg/mL each time. In addition, the MIC with Staphylococcus aureus [6] and against Staphylococcus aureus [7] was more than 64 µg/mL each time.
Consider `O=Cc1ccc(/C=C/C(=O)c2ccccc2Cl)cc1`, for which the MIC with Escherichia coli, against Staphylococcus aureus [1], against Staphylococcus aureus [2], against Staphylococcus aureus [3], with Staphylococcus aureus [4] and against Staphylococcus aureus [5] was more than 64 µg/mL in each case. In addition, the MIC in the assay with Staphylococcus aureus [6] and in the assay with Staphylococcus aureus [7] was more than 64 µg/mL each time.
In the case of `O=Cc1ccc(/C=C/C(=O)c2ccc(Br)cc2)cc1`, the MIC in the assay on Escherichia coli, in the assay with Staphylococcus aureus [1], with Staphylococcus aureus [2], in the assay on Staphylococcus aureus [3], in the assay with Staphylococcus aureus [4] and against Staphylococcus aureus [5] was more than 64 µg/mL each time. Moreover, the MIC in the assay with Staphylococcus aureus [6] and in the assay on Staphylococcus aureus [7] was more than 64 µg/mL each time.
Consider `COc1ccc(C(=O)/C=C/c2ccc(C=O)cc2)cc1`, for which the MIC with Escherichia coli, in the assay with Staphylococcus aureus [1], against Staphylococcus aureus [2], in the assay on Staphylococcus aureus [3], in the assay on Staphylococcus aureus [4] and against Staphylococcus aureus [5] was more than 64 µg/mL throughout. In addition, the MIC in the assay on Staphylococcus aureus [6] and in the assay with Staphylococcus aureus [7] was more than 64 µg/mL throughout.
As for `O=Cc1ccc(/C=C/C(=O)c2ccccc2Br)cc1`, the MIC against Escherichia coli, against Staphylococcus aureus [1], in the assay with Staphylococcus aureus [2], against Staphylococcus aureus [3], against Staphylococcus aureus [4] and with Staphylococcus aureus [5] was more than 64 µg/mL each time. The MIC in the assay with Staphylococcus aureus [6] and in the assay with Staphylococcus aureus [7] was more than 64 µg/mL throughout.
